Data as given in PubChem BioAssay AID248 (DTP/NCI, 2004).
Several values for one entry are separate records, joined by “and”; a condition that tells them apart may be missing. Equal entries are not always repeated. Toxic doses and inconclusive results are not listed. Cut-off read from the data, not from the text of the source: active = T/C of 150% or more; inactive = T/C below 125%.

Tested on: L1210 leukemia ip in BDF1 mice, survival T/C
Assay: NCI In Vivo Anticancer Drug Screen. Data for tumor model L1210 Leukemia (intraperitoneal) in B6D2F1 (BDF1) mice
Details: endpoint: mean survival time, higher = longer survival
In short: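 Survival endpoint. Drug-treated group vs vehicle group, expressed as T divided by C. Tumor passaged by transplantation.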

[1] = dose: 100.0 mg/kg/injection, schedule: Q04DX002 (ip), vehicle: Klucel (hydroxypropylcellulose) (HPC)
[2] = dose: 200.0 mg/kg/injection, schedule: Q04DX002 (ip), vehicle: Klucel (hydroxypropylcellulose) (HPC)
[3] = dose: 400.0 mg/kg/injection, schedule: Q04DX002 (ip), vehicle: Klucel (hydroxypropylcellulose) (HPC)
[4] = dose: 100.0 mg/kg/injection, schedule: Q04DX003 (ip), vehicle: saline with Tween-80
[5] = dose: 200.0 mg/kg/injection, schedule: Q04DX003 (ip), vehicle: saline with Tween-80
[6] = dose: 400.0 mg/kg/injection, schedule: Q04DX003 (ip), vehicle: saline with Tween-80
[7] = dose: 100.0 mg/kg/injection, schedule: Q01DX001 (ip), vehicle: other
[8] = dose: 200.0 mg/kg/injection, schedule: Q01DX001 (ip), vehicle: other
[9] = dose: 100.0 mg/kg/injection, schedule: Q01DX009 (ip), vehicle: Klucel (hydroxypropylcellulose) (HPC)
[10] = dose: 200.0 mg/kg/injection, schedule: Q01DX009 (ip), vehicle: Klucel (hydroxypropylcellulose) (HPC)

Measured: T/C

CCC1(O)CC(OC2CC(NC)C(OC3CC(O)C(OC4CC(O)C(O)C(C)O4)C(C)O3)C(C)O2)c2c(cc3c(c2O)C(=O)c2c(O)ccc(O)c2C3=O)C1C(=O)OC (stereo not given)
inactive: dose: 1.6 mg/kg/injection, schedule: Q01DX001 (ip), vehicle: saline 101 % of control | dose: 3.2 mg/kg/injection, schedule: Q01DX001 (ip), vehicle: saline 108 % of control | dose: 6.4 mg/kg/injection, schedule: Q01DX001 (ip), vehicle: saline 124 % of control | dose: 12.8 mg/kg/injection, schedule: Q01DX001 (ip), vehicle: saline 117 % of control | dose: 25.6 mg/kg/injection, schedule: Q01DX001 (ip), vehicle: saline 114 % of control

COc1cc2c(c(OC)c1OC)CCc1cnoc1-2
inactive: [1] 97 % of control | [2] 112 % of control | [3] 91 % of control

CCOC(=O)CCCCN(C(=O)OCc1ccccc1)N(C)C(=O)OCc1ccccc1
inactive: dose: 25.0 mg/kg/injection, schedule: Q04DX003 (ip), vehicle: saline with Tween-80 115 % of control | dose: 50.0 mg/kg/injection, schedule: Q04DX003 (ip), vehicle: saline with Tween-80 95 % of control | [4] 101 % of control | [5] 103 % of control | [6] 97 % of control

CCCCCCCCCCCCCCCCOC(=O)Cl
inactive: [7] 98 % of control | [8] 90 % of control | dose: 400.0 mg/kg/injection, schedule: Q01DX001 (ip), vehicle: other 106 % of control

CCC(CO)(CO)C(=[N-])c1ccccc1O.CCC(CO)(CO)N=Cc1ccccc1O.[Co]
inactive: dose: 50.0 mg/kg/injection, schedule: Q01DX001 (ip), vehicle: saline 98 % of control | dose: 100.0 mg/kg/injection, schedule: Q01DX001 (ip), vehicle: saline 94 % of control | dose: 200.0 mg/kg/injection, schedule: Q01DX001 (ip), vehicle: saline 94 % of control

Cc1ccc(NC(=O)N(CCCCl)N=O)cc1
inactive: dose: 25.0 mg/kg/injection, schedule: Q01DX009 (ip), vehicle: Klucel (hydroxypropylcellulose) (HPC) 103 % of control | dose: 50.0 mg/kg/injection, schedule: Q01DX009 (ip), vehicle: Klucel (hydroxypropylcellulose) (HPC) 93 % of control | dose: 59.0 mg/kg/injection, schedule: Q01DX009 (ip), vehicle: carboxymethylcellulose (CMC) 120 % of control | dose: 88.0 mg/kg/injection, schedule: Q01DX009 (ip), vehicle: carboxymethylcellulose (CMC) 117 % of control | dose: 100.0 mg/kg/injection, schedule: Q01DX001 (ip), vehicle: carboxymethylcellulose (CMC) 115 % of control | [9] 97 % of control | dose: 118.0 mg/kg/injection, schedule: Q01DX001 (sc), vehicle: olive oil, sesame oil, peanut oil 107 % of control | dose: 133.0 mg/kg/injection, schedule: Q01DX009 (ip), vehicle: carboxymethylcellulose (CMC) 88 % of control | dose: 177.0 mg/kg/injection, schedule: Q01DX001 (ip), vehicle: carboxymethylcellulose (CMC) 100 % of control and 113 % of control | dose: 177.0 mg/kg/injection, schedule: Q01DX001 (sc), vehicle: olive oil, sesame oil, peanut oil 107 % of control | dose: 200.0 mg/kg/injection, schedule: Q01DX001 (ip), vehicle: carboxymethylcellulose (CMC) 121 % of control | [10] 97 % of control | dose: 266.0 mg/kg/injection, schedule: Q01DX001 (ip), vehicle: carboxymethylcellulose (CMC) 105 % of control | dose: 266.0 mg/kg/injection, schedule: Q01DX001 (sc), vehicle: olive oil, sesame oil, peanut oil 102 % of control | dose: 400.0 mg/kg/injection, schedule: Q01DX001 (ip), vehicle: carboxymethylcellulose (CMC) 113 % of control and 119 % of control | dose: 400.0 mg/kg/injection, schedule: Q01DX001 (sc), vehicle: olive oil, sesame oil, peanut oil 107 % of control

COc1ccc(/C(=N\O)C(C)=O)cc1OC
inactive: [1] 103 % of control | [2] 103 % of control | [3] 91 % of control

COC1OC(COC(c2ccccc2)(c2ccccc2)c2ccccc2)C(OC)C(OC(C)=O)C1OC(C)=O (stereo not given)
inactive: dose: 25.0 mg/kg/injection, schedule: Q04DX002 (ip), vehicle: Klucel (hydroxypropylcellulose) (HPC) 95 % of control | dose: 50.0 mg/kg/injection, schedule: Q04DX002 (ip), vehicle: Klucel (hydroxypropylcellulose) (HPC) 95 % of control | [1] 92 % of control | [2] 102 % of control | [3] 90 % of control

CCOC(=O)c1ccc(NC(=O)Oc2ccccc2C(=O)OC)cc1
inactive: [9] 96 % of control | [10] 97 % of control | dose: 400.0 mg/kg/injection, schedule: Q01DX009 (ip), vehicle: Klucel (hydroxypropylcellulose) (HPC) 93 % of control

O=c1cc[nH]c2ccccc12
inactive: dose: 100.0 mg/kg/injection, schedule: Q01DX001 (ip), vehicle: saline with Tween-80 96 % of control | dose: 200.0 mg/kg/injection, schedule: Q01DX001 (ip), vehicle: saline with Tween-80 97 % of control | dose: 400.0 mg/kg/injection, schedule: Q01DX001 (ip), vehicle: saline with Tween-80 103 % of control

CCN(CC)CCOc1cc(C)c2cc(Cc3ccccc3)ccc2n1
inactive: [7] 104 % of control | [8] 96 % of control

CC(=O)Nc1ccc(NCc2cnc3nc(N)nc(N)c3n2)cc1
inactive: dose: 20.0 mg/kg/injection, schedule: Q01DX009 (ip), vehicle: Klucel (hydroxypropylcellulose) (HPC) 96 % of control | dose: 40.0 mg/kg/injection, schedule: Q01DX009 (ip), vehicle: Klucel (hydroxypropylcellulose) (HPC) 104 % of control | dose: 80.0 mg/kg/injection, schedule: Q01DX009 (ip), vehicle: Klucel (hydroxypropylcellulose) (HPC) 96 % of control

C=C(C)[C@@H]1CC[C@]2(C(=O)OC)CC[C@]3(C)[C@H](CC[C@@H]4[C@@]5(C)CC[C@H](O)C(C)(C)[C@@H]5CC[C@]43C)[C@@H]12
inactive: dose: 100.0 mg/kg/injection, schedule: Q04DX003 (ip), vehicle: alcohol 103 % of control | dose: 200.0 mg/kg/injection, schedule: Q04DX003 (ip), vehicle: alcohol 100 % of control | dose: 400.0 mg/kg/injection, schedule: Q04DX003 (ip), vehicle: alcohol 91 % of control

O=C([O-])c1ccccc1[S+](c1ccccc1)c1ccccc1
inactive: dose: 18.0 mg/kg/injection, schedule: Q04DX002 (ip), vehicle: saline with Tween-80 104 % of control

CC[NH-].CC[NH-].[Cl][Pt+2][Cl]
inactive: dose: 0.75 mg/kg/injection, schedule: Q01DX009 (ip), vehicle: other 106 % of control | dose: 1.5 mg/kg/injection, schedule: Q01DX001 (ip), vehicle: other 101 % of control | dose: 1.5 mg/kg/injection, schedule: Q01DX009 (ip), vehicle: other 118 % of control | dose: 2.6 mg/kg/injection, schedule: Q01DX009 (ip), vehicle: Klucel (hydroxypropylcellulose) (HPC) 108 % of control and 114 % of control | dose: 3.0 mg/kg/injection, schedule: Q01DX001 (ip), vehicle: other 106 % of control | dose: 3.0 mg/kg/injection, schedule: Q01DX009 (ip), vehicle: other 124 % of control | dose: 4.0 mg/kg/injection, schedule: Q01DX009 (ip), vehicle: Klucel (hydroxypropylcellulose) (HPC) 108 % of control and 119 % of control | dose: 5.0 mg/kg/injection, schedule: Q04DX003 (ip), vehicle: Klucel (hydroxypropylcellulose) (HPC) 107 % of control | dose: 6.0 mg/kg/injection, schedule: Q01DX009 (ip), vehicle: Klucel (hydroxypropylcellulose) (HPC) 115 % of control and 119 % of control | dose: 8.0 mg/kg/injection, schedule: Q04DX003 (ip), vehicle: Klucel (hydroxypropylcellulose) (HPC) 110 % of control | dose: 9.0 mg/kg/injection, schedule: Q01DX009 (ip), vehicle: Klucel (hydroxypropylcellulose) (HPC) 107 % of control | dose: 12.0 mg/kg/injection, schedule: Q01DX001 (ip), vehicle: other 121 % of control | dose: 12.5 mg/kg/injection, schedule: Q01DX009 (ip), vehicle: Klucel (hydroxypropylcellulose) (HPC) 119 % of control | dose: 18.0 mg/kg/injection, schedule: Q04DX003 (ip), vehicle: Klucel (hydroxypropylcellulose) (HPC) 117 % of control | dose: 25.0 mg/kg/injection, schedule: Q04DX003 (ip), vehicle: Klucel (hydroxypropylcellulose) (HPC) 90 % of control

CC1CCC2CON(C(C)(C)C)C2C1 (stereo not given)
inactive: dose: 50.0 mg/kg/injection, schedule: Q01DX009 (ip), vehicle: saline with Tween-80 106 % of control | dose: 100.0 mg/kg/injection, schedule: Q01DX009 (ip), vehicle: saline with Tween-80 107 % of control | [4] 103 % of control | [5] 97 % of control and 101 % of control | [6] 94 % of control

NOCc1ccc(OCc2ccccc2)cc1
inactive: dose: 100.0 mg/kg/injection, schedule: Q04DX003 (ip), vehicle: acetone 102 % of control | dose: 200.0 mg/kg/injection, schedule: Q04DX003 (ip), vehicle: acetone 95 % of control
